From the NIST ThermoML archive (doi:10.1021/je060032n)

How the values were obtained:
[1] = refractive index (Na D-line) (dimensionless); conditions: 101.33 kPa, Liquid, Standard Abbe refractometry
[2] = 101 kPa, Liquid; for viscosity: Capillary tube (Ostwald / Ubbelohde) method
[3] = xn = mol fraction of the nth substance listed; conditions: 101 kPa, Liquid, x2 = 0; for viscosity: Capillary tube (Ostwald / Ubbelohde) method
[4] = refractive index (Na D-line) (dimensionless); xn = mol fraction of the nth substance listed; conditions: 101 kPa, Liquid, Standard Abbe refractometry, x2 = 0

NCCNCCO [N-(2-aminoethyl)ethanolamine]
Conditions | mass density, [2] [kg/m3] | refractive index, [1] | viscosity, [2] [mPa·s]
298.15 K | 1025.28 | 1.48454 | 98.6
303.15 K | 1021.53 | 1.48269 | 70.5
313.15 K | 1014.02 | 1.47884 | 39.4
323.15 K | 1006.44 | 1.47516 | 23.4
333.15 K | 998.83 | 1.47128 | 14.8
343.15 K | 991.15 | – | 10.1

O [water] + NCCNCCO
Conditions | mass density, [3] [kg/m3] | refractive index, [4] | viscosity, [3] [mPa·s]
298.15 K | – | 1.33258 | 0.882
303.15 K | – | 1.33202 | 0.804
313.15 K | – | 1.33067 | 0.659
323.15 K | 988.03 | 1.32909 | 0.551
333.15 K | 983.19 | 1.3273 | 0.47
343.15 K | 977.75 | – | 0.407
